Results taken from ChEMBL document CHEMBL4145541, “Tricyclic pyrazolo[1,5-d][1,4]benzoxazepin-5(6H)-one scaffold derivatives: Synthesis and biological evaluation as selective BuChE inhibitors” (Eur J Med Chem, 2018).
Activity calls are given as the source filed them. No cut-off for these calls is given here.

What was measured:
[1] = molecular target: Acetylcholinesterase (Electrophorus electricus, UniProt O42275); assay: (§1) Inhibition of electric eel AChE at 20 uM using acetylthiocholine iodide as substrate preincubated for 20 mins followed by substrate addition and measured after 20 mins by Ellman's method relative to control; conditions: 20 min, 20 µM
Chain of Acetylcholinesterase (O42275 whole entry): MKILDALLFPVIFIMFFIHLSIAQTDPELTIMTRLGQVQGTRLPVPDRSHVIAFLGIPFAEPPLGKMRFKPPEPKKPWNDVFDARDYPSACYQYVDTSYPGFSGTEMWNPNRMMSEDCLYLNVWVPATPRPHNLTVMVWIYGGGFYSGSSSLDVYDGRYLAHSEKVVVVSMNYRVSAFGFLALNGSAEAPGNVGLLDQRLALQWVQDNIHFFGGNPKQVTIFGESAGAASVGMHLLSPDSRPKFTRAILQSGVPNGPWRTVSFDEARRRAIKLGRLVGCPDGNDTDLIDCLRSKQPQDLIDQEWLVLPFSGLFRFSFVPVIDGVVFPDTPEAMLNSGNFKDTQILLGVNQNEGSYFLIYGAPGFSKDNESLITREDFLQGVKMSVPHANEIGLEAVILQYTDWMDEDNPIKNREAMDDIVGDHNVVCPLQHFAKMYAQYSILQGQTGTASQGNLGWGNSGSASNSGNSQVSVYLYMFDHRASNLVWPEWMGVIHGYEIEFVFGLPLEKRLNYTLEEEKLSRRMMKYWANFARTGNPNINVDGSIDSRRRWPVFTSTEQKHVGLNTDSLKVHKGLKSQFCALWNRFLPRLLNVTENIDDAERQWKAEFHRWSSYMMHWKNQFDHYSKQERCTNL

[2] = molecular target: Cholinesterase (Equus caballus) (UniProt P81908); assay: Inhibition of equine serum BuChE at 20 uM using butyrylthiocholine iodide as substrate preincubated for 20 mins followed by substrate addition and measured after 20 mins by Ellman's method relative to control
Chain of Cholinesterase (Equus caballus) (P81908 whole entry): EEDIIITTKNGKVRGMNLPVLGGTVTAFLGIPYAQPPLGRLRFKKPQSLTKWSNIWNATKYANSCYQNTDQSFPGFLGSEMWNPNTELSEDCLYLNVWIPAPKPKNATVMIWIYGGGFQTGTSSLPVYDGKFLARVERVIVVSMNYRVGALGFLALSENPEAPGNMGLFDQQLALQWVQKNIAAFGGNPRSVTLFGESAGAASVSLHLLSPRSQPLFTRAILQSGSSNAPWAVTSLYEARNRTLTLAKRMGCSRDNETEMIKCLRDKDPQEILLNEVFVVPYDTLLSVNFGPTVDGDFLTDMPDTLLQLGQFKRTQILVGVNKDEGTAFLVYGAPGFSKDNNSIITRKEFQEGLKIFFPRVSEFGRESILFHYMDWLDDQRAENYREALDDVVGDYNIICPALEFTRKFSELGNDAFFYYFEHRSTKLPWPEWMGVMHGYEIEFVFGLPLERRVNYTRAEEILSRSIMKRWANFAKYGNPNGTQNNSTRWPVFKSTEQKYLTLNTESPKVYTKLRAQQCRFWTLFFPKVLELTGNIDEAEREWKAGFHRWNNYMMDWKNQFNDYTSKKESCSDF

[3] = Octanol-water partition coefficient, log P of the compound at pH 7.4 after 24 hrs by shake flask method; format: physicochemical
[4] = molecular target: acetylcholinesterase (AChE) (Electrophorus electricus, UniProt O42275); assay: as §1; conditions: electric eel acetylcholinesterase enzyme, probe acetylthiocholine iodide
Chain of acetylcholinesterase (AChE) (O42275 whole entry): as the sequence (O42275 whole entry) above

[5] = molecular target: T1, Cholinesterase (Equus caballus, UniProt P81908); assay: Inhibition of equine serum BuChE using butyrylthiocholine iodide as substrate preincubated for 20 mins followed by substrate addition and measured after 20 mins by Ellman's method
T1 sequence (P81908 whole entry): as the sequence (P81908 whole entry) above

[6] = molecular target: T1, Cholinesterase; assay: Non-competitive inhibition of equine serum BuChE using varying levels of butyrylthiocholine iodide as substrate preincubated for 20 mins followed by substrate addition and measured after 20 mins by Lineweaver-Burk plot analysis; conditions: read-out: Ki(app)
[7] = Cytotoxicity against rat PC12 cells assessed as cell viability up to 50 uM after 24 hrs by MTT assay relative to control
[8] = system: PC-12; assay: Neuroprotection against H2O2-induced oxidative stress in rat PC12 cells assessed as cell viability at 25 uM preincubated for 3 hrs followed by H2O2 addition and measured after 24 hrs by MTT assay relative to control; format: functional; conditions: read-out: Activity
[9] = molecular target: T1, Cholinesterase; assay: Mixed-type inhibition of equine serum BuChE using varying levels of butyrylthiocholine iodide as substrate preincubated for 20 mins followed by substrate addition and measured after 20 mins by Lineweaver-Burk plot analysis; conditions: read-out: Ki(app)

For `CCC1Oc2ccc(Br)cc2C2CC(C)=NN2C1=O` (centres undefined), the “inhibition (INH)” value [1] was “Not Active”, the inhibition [2] was 39% and the logD at 24 h [3] was 1.11.

In the case of `CC1=NN2C(=O)COc3ccc(Cl)cc3C2C1` (centres undefined), the inhibition at 20 min, 20 µM [4] is reported as 2% and the inhibition [2] is reported as “inactive”.

With `CC1=NN2C(=O)C(C)Oc3ccc(Cl)cc3C2C1` (centres undefined) the “inhibition (INH)” value [1] was “Not Active” and the inhibition [2] was 39%.

For `CC1=NN2C(=O)COc3ccc(Br)cc3C2C1` (centres undefined), the inhibition at 20 min, 20 µM [4] was 29% and the inhibition [2] was “inactive”.

With `CC[C@@H]1Oc2c(Br)cc(Cl)cc2C2CC(C)=NN2C1=O` (some centres undefined) the “inhibition (INH)” value [1] was “Not Active” and the IC50 [5] was 20.4 µM.

In the case of `CC1=NN2C(=O)C(C)Oc3c(Br)cc(Br)cc3C2C1` (centres undefined), the “inhibition (INH)” value [1] is reported as “Not Active” and the inhibition [2] is reported as 11%.

For `CC1Oc2ccc(Br)cc2C2CC(c3ccc(F)cc3)=NN2C1=O` (centres undefined), the “inhibition (INH)” value [1] was “Not Active” and the inhibition [2] was 45%.

`CC1=NN2C(=O)C(C)Oc3ccc(C)cc3C2C1` (centres undefined) gave an inhibition at 20 min, 20 µM [4] of 22% and an inhibition [2] of 1%.

`CCC1Oc2c(Cl)cc(Cl)cc2C2CC(C)=NN2C1=O` (centres undefined) showed an inhibition at 20 min, 20 µM [4] of 26%, an IC50 [5] of 4.67 µM and a logD at 24 h [3] of 1.12.

With `CC[C@H]1Oc2c(Br)cc(Cl)cc2C2CC(C)=NN2C1=O` (some centres undefined) the “inhibition (INH)” value [1] was “Not Active” and the IC50 [5] was 1.14 µM.

Work on `O=C1COc2ccc(Br)cc2C2CC(c3ccco3)=NN12` (centres undefined) yielded an inhibition at 20 min, 20 µM [4] of 25% and an inhibition [2] of 20%.

For `CC1=NN2C(=O)COc3c(Br)cc(Br)cc3C2C1` (centres undefined), the “inhibition (INH)” value [1] was “Not Active” and the inhibition [2] was 24%.

With `CC1Oc2c(Br)cc(Br)cc2C2CC(c3ccc(F)cc3)=NN2C1=O` (centres undefined) the “inhibition (INH)” value [1] was “Not Active” and the inhibition [2] was “inactive”.

With `CCC1Oc2c(Br)cc(Cl)cc2C2CC(C)=NN2C1=O` (centres undefined) the “inhibition (INH)” value [1] was “Not Active”, the IC50 [5] was 2.04 µM and the Ki [6] was 1.5 µM. The viability at 24 h ([7]; PC12 cells) was > 90%, the viability at 25 µM [8] was 70% and the logD at 24 h [3] was 1.57.

`COc1cccc2c1OCC(=O)N1N=C(C)CC21` (centres undefined) showed an inhibition at 20 min, 20 µM [4] of 34% and an inhibition [2] of 2%.

Work on `CC1=NN2C(=O)COc3c(Br)cc(Cl)cc3C2C1` (centres undefined) yielded an inhibition at 20 min, 20 µM [4] of 32% and an inhibition [2] of 18%.

With `CC1=NN2C(=O)C(C)Oc3c(Cl)cc(Cl)cc3C2C1` (centres undefined) the inhibition at 20 min, 20 µM [4] was 22%, the IC50 [5] was 5.95 µM and the logD at 24 h [3] was 2.49.

With `COc1cc2c(cc1OC)C(=O)C(CC1CCN(Cc3ccccc3)CC1)C2` (centres undefined) [DONEPEZIL] the viability at 24 h ([7]; pc-12) was > 90%.

With `CCC1Oc2ccc(Cl)cc2C2CC(C)=NN2C1=O` (centres undefined) the “inhibition (INH)” value [1] was “Not Active”, the IC50 [5] was 12.8 µM and the logD at 24 h [3] was 1.05.

With `CC1=NN2C(=O)COc3ccc(C)cc3C2C1` (centres undefined) the inhibition at 20 min, 20 µM [4] was 24% and the inhibition [2] was “inactive”.

With `CC1Oc2ccc(Cl)cc2C2CC(c3ccc(F)cc3)=NN2C1=O` (centres undefined) the “inhibition (INH)” value [1] was “Not Active” and the inhibition [2] was 17%.

`CC1=NN2C(=O)C(C)Oc3ccc(Br)cc3C2C1` (centres undefined) gave an inhibition at 20 min, 20 µM [4] of 23% and an inhibition [2] of 18%.

With `COc1cccc2c1OC(C)C(=O)N1N=C(C)CC21` (centres undefined) the inhibition at 20 min, 20 µM [4] was 24% and the inhibition [2] was “inactive”.

For `CC1=NN2C(=O)C(C)Oc3c(Br)cc(Cl)cc3C2C1` (centres undefined), the “inhibition (INH)” value [1] was “Not Active”, the IC50 [5] was 11.1 µM and the logD at 24 h [3] was 2.18.

Work on `CCC1Oc2c(Br)cc(Br)cc2C2CC(C)=NN2C1=O` (centres undefined) yielded an inhibition at 20 min, 20 µM [4] of 41%, an IC50 [5] of 2.92 µM and a Ki [9] of 7.6 µM. For the same molecule, the logD at 24 h [3] was 1.08.

`CC1Oc2c(Cl)cc(Cl)cc2C2CC(c3ccco3)=NN2C1=O` (centres undefined) gave an inhibition at 20 min, 20 µM [4] of 28% and an inhibition [2] of 23%.

In the case of `CC1=NN2C(=O)COc3c(Cl)cc(Cl)cc3C2C1` (centres undefined), the inhibition at 20 min, 20 µM [4] is reported as 25% and the inhibition [2] is reported as 31%.
